Data set [1] relates to acetic acid-induced colitis. The experiment in a line: reversal studies, compound given 30 minutes after 2.5% acetic acid. It is filed as in vivo, rat. An excerpt:
(§1) The lesions were apparently resolving and with some lamina proprial fibrosis and considerable hyperplasia of submucosal lymphoid tissue. […] This is a highly desirable property, as patients suffering from IBD are already anemic due to disease-related blood loss.

A further data set deals with mice. The settings on record: mouse, in vivo. An excerpt: DFO and DFT given i.r. at a dose of 650 μmol/kg were ineffective. […] See, for example, FIGS. 7 and 8.
A short description of data set [2]: iron binding in a test tube. It is filed as physicochemical.
From the text: as §1

A further data set concerns iron. The data set can be described thus: iron chelator activity when given to rats. In kind it is in vivo.
From the text: as §1

For data set [3], the system named is acetic acid-induced colitis. The experiment in a line: acetic acid-induced colitis in the rat, test drug i.r. 30 minutes before acetic acid. As to conditions: for damage in the colons: 650 μmol/kg i.r. 30 minutes before acetic acid, colons assessed 24 hours later. It is filed as in vivo. An excerpt:
A typical model of IBD in acetic acid-induced colitis in the rat has been described by Krawisz et al in Amer. J. Proc. Gastro. Col. Rec. Surg., Vol. 31, pages 11-18 (1980); and by Sharon et al in Gastroenterology, Vol. 88, pages 55-63 (1985) and Vol. 86, pages 453-460 (1984). Acetic acid-induced colitis is characterized by the movement of inflammatory cells into the colon, with the number of such cells in the mucosa being measured by the activity of myeloperoxidase, a marker enzyme for these cells. Positive desirable activity is indicated by a reduction in the high levels of myeloperoxidase caused by acetic acid. Typically, Sprague-Dawley rats from Charles River Laboratories, Portage, Mich. (either sex, weight approximately 250 g) are dosed with test compounds and controls. Thereafter, the rats are given an intracolonic enema of acetic acid which produces a severe inflammatory response in the colon of a healthy rat characterized by rectal bleeding, diarrhea, epithelial erosions and destructions of crypts and gland cells. Twenty-four hours later, the test and control animals are sacrificed and the distal ten centimeters of the colons are removed and opened longitudinally. The tissue lesions contained within the removed, opened section of the colons are scored. After the systematic evaluation of the impact of various fasting times, use of vehicles, the time interval between pre-treatment and administration of the acetic acid and altering the concentration of acetic acid, the final protocol for the experiments is to fast the rats for 30 hours in hanging wire cages, anesthetize the animals with sodium pentobarbital, administer the test drug 1 cc intrarectally (i.r.) either as a suspension or a solution in water, and to give the acetic acid (7.5% in water) 1 cc i.r. 30 minutes later. The rats are sacrificed 24 hours later and the colons are removed and assessed for damage.

Structures are written as SMILES. Entries after “also recorded” stand apart in the source; their conditions may differ.

Consider `Cc1ccc(O)c(C2=NC(C(=O)O)CC2)c1` (stereo not shown) [2H-pyrrolecarboxylic acid, 3,4-dihydro-5-(2-hydroxy-5-methylphenyl)-2H-pyrrole-2-carboxylic acid], for which the “lesions compared with the control group” value in data set [1] is “less severe and less active”. Further, the acute toxicity entry in the data set with mice was “virtually non-toxic”. Besides, the iron binding result in data set [2] is “binds iron remarkably well”. Besides, the “activity as an iron chelator” value in the data set with iron (orally) and with iron (subcutaneously (s.c.)) was “inactive” in each case. The “dose response study, prevention of severe lesions” value in data set [3] (162.5 μmol/kg (41.5 mg/kg) at 1 cc i.r.) is “severe lesions being prevented in a majority of rats”. For the same molecule, in data set [3], the “damage in the colons” value is “very little damage; also recorded: considerably less damage”. Besides, in data set [3] (compound 650 μmol/kg vs. 5-ASA/Rowasa 1742 μmol/kg), the “head-to-head comparison with 5-ASA or its commercially available formulation (Rowasa)” value was “far superior”.
On to `C[C@]1(C(=O)O)CSC(c2ncccc2O)=N1` [DFT, reference compound], for which, in data set [3], the “damage in the colons” value is on record as “ineffective”.
In the case of `CC(=O)N(O)CCCCCNC(=O)CCC(=O)N(O)CCCCCNC(=O)CCC(=O)N(O)CCCCCN` [DFO, reference compound], the “damage in the colons” value in data set [3] is “ineffective”.

Source of the values: patent publication US6689788B1, “Method and composition for treatment of inflammatory bowel disease” (University of Florida, priority 2000, dated 2004).
